Experimental data taken from patent US20170223976A1, “MODIFIED MILK POWDER CONTAINING 1,5-ANHYDRO-D-GLUCITOL” (NIHON STARCH CO., LTD., priority 2015, published 2017).

Assays:
CSH-1 gene = CSH-1 gene expression in placental trophoblastic cells, real-time RT-PCR; format: cell-based, human; conditions: 160 μg/mL 1,5-AG, after 72 hours
Method: (§1) The influence upon these two genes (PSG-1 and CSH-1) of 1,5-AG was analyzed by a real-time RT-PCR method using placental trophoblastic cells. As a preliminary study, the expression level of PSG-1 was analyzed at three concentrations (1 μg/mL or less, 40 μg/mL and 160 μg/mL of 1,5-AG) and for three sampling times (3, 24 and 72 hours). A test was conducted by the following method.
(§2) Human placental villous trophoblastic cells (ScienCell Research Laboratories)
The human placental villous trophoblastic cells were initiated in a T-75 flask by using a trophoblast medium (to be simply referred to as “medium” hereinafter) to be cultured in a CO2 incubator (5% CO2, 37° C., moistening). […] Then, the supernatant was removed by centrifugation (180 g, 5 minutes), a new medium was added to stir the cells, the number of the cells was counted by using a corpuscle calculating board, and a medium was used to achieve a target concentration (4.0×10^3 cells/100 μL). […]
(§3) The PCR reaction was carried out under the conditions of 95° C.·30 sec−(95° C.·10 sec−60° C.·30 sec)×45 cycles−95° C.·15 sec−55° C.·15 sec−95° C.·15 sec, and the dissociation curve of the PCR product was obtained after the end of the PCR reaction. The relative expression level was calculated by the ? […]

PSG-1 gene = PSG-1 gene expression in placental trophoblastic cells, real-time RT-PCR; format: cell-based, human; conditions: for expression level of PSG-1 gene relative to non-added section: after 72 hours
Method: as §1, §2
The human placental villous trophoblastic cells were initiated in a T-75 flask by using a trophoblast medium (to be simply referred to as “medium” hereinafter) to be cultured in a CO2 incubator (5% CO2, 37° C., moistening). Medium exchange was carried out every 2 days, the cells were collected when 80% confluence was reached, and cells having a passage number of 2 were used in this test. Stated more specifically, after the cells were washed with D-PBS (−), the cells were separated by using 0.25% trypsin-EDTA, and a medium was added to neutralize trypsin. Then, the supernatant was removed by centrifugation (180 g, 5 minutes), a new medium was added to stir the cells, the number of the cells was counted by using a corpuscle calculating board, and a medium was used to achieve a target concentration (4.0×10^3 cells/100 μL).
The sample was added to mediums to achieve 1,5-AG final concentrations of 40 μg/mL and 160 μg/mL. When the final concentration was not more than 1 μg/mL, 1,5-AG was not added. Stated more specifically, a 1,5-AG aqueous solution having a concentration of 40 mg/mL was added to a test medium in a ratio of 1/1000 or 1/250 to achieve a final concentration of 40 μg/mL or 160 μg/mL, and the 1,5-AG solution was sterilized with a filter to be used in the test. […]
as §3

PC12 cells = assay: Fluorescence determination of number of living cells and amount of neurite outgrowth (neurite outgrowth staining kit); format: cell-based
Method: A test was carried out at five concentrations (1.6, 8, 40, 200 and 1,000 μg/mL) of 1,5-AG. Stated more specifically, a 1,5-AG aqueous solution having a concentration of 100 mg/mL was diluted with water to prepare 100 times-concentrated solutions having concentrations of 0.16, 0.8, 4, 20 and 100 mg/mL. These 100 times-concentrated solutions were each added to a test medium in a ratio of 1/100 to achieve final concentrations of 1.6, 8, 40, 200 and 1,000 μg/mL and sterilized with a filter to be used in the test. As a negative control, water was added to a medium in a ratio of 1/100 and sterilized with a filter to be used in the test. As a positive control, a test medium containing a 100 ng/mL nerve growth factor (NGF) was used.
A growth medium was used to adjust the cells to a concentration of 2.0×10^3 cells/100 μL/well, and the cells were scattered in a collagen-coated 96-well plate to be cultured in a CO2 incubator (5% CO2, 37° C., moistening) for 24 hours. After culture, the medium was replaced by a sample-containing test medium (100 μL), and the cells were cultured in a CO2 incubator for 96 hours. After the end of culture, an image of the cells in each well was taken with a phase difference microscope and used for the measurement of nuetrite outgrowth rate, and nuclei and cytoplasms were fluorescent dyed by using a neurite outgrowth staining kit to measure the number of living cells and the amount of neurite outgrowth. These procedures were carried out five times each.
After the end of culture, the number of living cells and the amount of neurite outgrowth were determined by using a neurite outgrowth staining kit. Stated more specifically, after the medium was removed, 100 μL of a staining solution (prepared by diluting Cell Viability Indicator and Cell Membrane Stain attached to the kit with calcium magnesium-containing PBS 1,000 times) was added to each well to incubate the cells at 37° C. for 20 minutes. After incubation, the staining solution was removed, 100 μL of a background suppression solution (prepared by diluting the background suppression dye attached to the kit with calcium magnesium-containing PBS 100 times) was added to each well so as to measure fluorescence intensity with a micro plate reader (measurement of the number of living cells: excitation wavelength of 495 nm, fluorescence wavelength of 515 nm, measurement of the amount of neurite outgrowth: excitation wavelength of 555 nm, fluorescent wavelength of 565 nm).

[1] = test system: type 2 diabetes model mice; conditions: mouse, in vivo; cited from earlier work
[2] = cited from earlier work
[3] = excessive amount of 1,5-AG taken as food

## OC[C@H]1OC[C@H](O)[C@@H](O)[C@@H]1O [1,5-AG, 1,5-anhydro-D-glucitol]
CSH-1 gene
  expression level of CSH-1 gene relative to non-added section: 0.92 time
PSG-1 gene; 40 μg/mL 1,5-AG
  expression level of PSG-1 gene relative to non-added section: 1.54 times
PSG-1 gene; 160 μg/mL 1,5-AG
  expression level of PSG-1 gene relative to non-added section: 1.62 times
PSG-1 gene; 1,5-AG added sections, 3, 24 and 72 hours
  expression level of PSG-1 gene over treatment time: rose in proportion to the sample treatment time
PC12 cells; 8 μg/mL section
  amount of neurite outgrowth as compared with the non-added section: 113.4%
PC12 cells; 40 μg/mL section
  amount of neurite outgrowth as compared with the non-added section: 113.3%
PC12 cells; all test sections versus negative control, 96 hours
  number of living cells: about the same as that of a negative control
[1]
  anti-inflammatory effect: anti-inflammatory effect
[2]; [3]
  temporary rise of the concentration of 1,5-AG in the blood: about 100 times
  time for the 1,5-AG level in the blood to return to the original level: about 24 hours
[2]; ingested temporarily, for example 20 g, eliminated through urine
  time for the 1,5-AG level in the blood to return to the original value: about 24 hours
